How the values were obtained:
patient with glaucoma = experiment: Topical ophthalmic composition given to a patient with glaucoma, intraocular pressure; type: in vivo, human; conditions: Example G topical ophthalmic composition 0.10 % w/v, one-tenth of a mL into each eye
Protocol: One-tenth of a mL of the composition is administered directly into each eye of a patient with glaucoma.

[1] = tested on: patient with nasal congestion; experiment: Composition given to a patient with nasal congestion; type: in vivo, human
Protocol: One tablet is swallowed by a patient with nasal congestion.
One tablet is chewed and swallowed by a patient with nasal congestion.
One tablet is placed under the tongue of a patient with nasal congestion and allowed to dissolve.
One-tenth of a mL of the composition is sprayed from a pump actuator into each nostril of a patient with nasal congestion.
One-fifth of a mL of the composition is applied as drops from a dropper into each nostril of a patient with nasal congestion.
One 15 mL dose of the alcohol-free liquid medication is swallowed by a patient with nasal congestion.

patient with migraine = experiment: Oral tablet given to a patient with migraine; type: in vivo, human; conditions: Example K oral tablet, 4 mg per tablet, one tablet swallowed
Description: One tablet is swallowed by a patient with migraine.

[2] = tested on: human subject suffering from septic or cardiogenic shock; experiment: Intravenous solution given to a human subject suffering from septic or cardiogenic shock; type: in vivo; conditions: Example T solution 10 mg/ml carrier, approximately 2.0 ml intravenously
Protocol: The above ingredients are mixed, forming a solution. Approximately 2.0 ml of the solution is administered, intravenously, to a human subject suffering from septic or cardiogenic shock.

[3] = tested on: patient with nasal congestion and runny nose due to allergic rhinitis; experiment: Oral liquid given to a patient with nasal congestion and runny nose due to allergic rhinitis; type: in vivo, human; conditions: Example H oral liquid, 15 mg with chlorpheniramine maleate 4 mg per 15 mL dose, one dose swallowed
Protocol: One 15 mL dose of the liquid composition is swallowed by a patient with nasal congestion and runny nose due to allergic rhinitis.

patient with asthma = experiment: Inhalation aerosol given to a patient with asthma; type: in vivo, human; conditions: Example F inhalation aerosol 5.0 % w/v, two puffs from a metered-dose inhaler
Description: Two-puffs of the aerosol composition is inhaled from a metered-dose inhaler by a patient with asthma.

Compound | intraocular pressure (patient with glaucoma) | nasal congestion ([1]; Example B chewable tablet, 15.0 mg per tablet, one tablet chewed and swallowed) | nasal congestion ([1]; Example D intranasal solution 0.20 % w/v, one-tenth of a mL sprayed into each nostril) | nasal congestion ([1]; Example E intranasal gel 0.10 % w/v, one-fifth of a mL as drops into each nostril) | pain and aura of migraine (patient with migraine) | symptoms of septic or cardiogenic shock [2] | congestion and runny nose [3] | asthmatic condition (patient with asthma) | nasal congestion ([1]; Example A oral tablet, 20.0 mg per tablet, one tablet swallowed) | nasal congestion ([1]; Example C sublingual tablet, 2.00 mg per tablet, one tablet under the tongue) | nasal congestion ([1]; Example J alcohol-free oral liquid, 30 mg per 15 mL dose, one dose swallowed)
Cc1c(NNC(=N)N)ccc2cccnc12 [Example 1, [(8-Methylquinolin-7-yl)amino]guanidine] | substantially reduced | substantially reduced | substantially diminished | substantially reduced | substantially diminished | symptoms subside |  |  |  |  | 
[(4-Methylbenzimidazol-5-yl)amino]guanidine [Example 2] |  |  |  |  |  |  | effectively reduced | effectively relieved | substantially diminished | rapidly and substantially diminished | substantially diminished
